Laboratory results from patent publication US20090306133A1, “New Acetyl Coenzyme A Carboxylase (ACC) Inhibitors And Uses In Treatments Of Obesity And Diabetes Mellitus - 087” (ASTRAZENECA AB, priority 2007, published 2009).

Columns and labels:
Assay type in all cases: biochemical
[1] = molecular target: T1, Human recombinant Acetyl-CoA Carboxylase 2 (ACC2) (Homo sapiens, UniProt O00763); assay: Assay X: ACC2 inhibition, inorganic phosphate (malachite green); settings: Assay X: 37° C., 1.5 h, 5 min pre-incubation
T1 sequence (O00763 whole entry): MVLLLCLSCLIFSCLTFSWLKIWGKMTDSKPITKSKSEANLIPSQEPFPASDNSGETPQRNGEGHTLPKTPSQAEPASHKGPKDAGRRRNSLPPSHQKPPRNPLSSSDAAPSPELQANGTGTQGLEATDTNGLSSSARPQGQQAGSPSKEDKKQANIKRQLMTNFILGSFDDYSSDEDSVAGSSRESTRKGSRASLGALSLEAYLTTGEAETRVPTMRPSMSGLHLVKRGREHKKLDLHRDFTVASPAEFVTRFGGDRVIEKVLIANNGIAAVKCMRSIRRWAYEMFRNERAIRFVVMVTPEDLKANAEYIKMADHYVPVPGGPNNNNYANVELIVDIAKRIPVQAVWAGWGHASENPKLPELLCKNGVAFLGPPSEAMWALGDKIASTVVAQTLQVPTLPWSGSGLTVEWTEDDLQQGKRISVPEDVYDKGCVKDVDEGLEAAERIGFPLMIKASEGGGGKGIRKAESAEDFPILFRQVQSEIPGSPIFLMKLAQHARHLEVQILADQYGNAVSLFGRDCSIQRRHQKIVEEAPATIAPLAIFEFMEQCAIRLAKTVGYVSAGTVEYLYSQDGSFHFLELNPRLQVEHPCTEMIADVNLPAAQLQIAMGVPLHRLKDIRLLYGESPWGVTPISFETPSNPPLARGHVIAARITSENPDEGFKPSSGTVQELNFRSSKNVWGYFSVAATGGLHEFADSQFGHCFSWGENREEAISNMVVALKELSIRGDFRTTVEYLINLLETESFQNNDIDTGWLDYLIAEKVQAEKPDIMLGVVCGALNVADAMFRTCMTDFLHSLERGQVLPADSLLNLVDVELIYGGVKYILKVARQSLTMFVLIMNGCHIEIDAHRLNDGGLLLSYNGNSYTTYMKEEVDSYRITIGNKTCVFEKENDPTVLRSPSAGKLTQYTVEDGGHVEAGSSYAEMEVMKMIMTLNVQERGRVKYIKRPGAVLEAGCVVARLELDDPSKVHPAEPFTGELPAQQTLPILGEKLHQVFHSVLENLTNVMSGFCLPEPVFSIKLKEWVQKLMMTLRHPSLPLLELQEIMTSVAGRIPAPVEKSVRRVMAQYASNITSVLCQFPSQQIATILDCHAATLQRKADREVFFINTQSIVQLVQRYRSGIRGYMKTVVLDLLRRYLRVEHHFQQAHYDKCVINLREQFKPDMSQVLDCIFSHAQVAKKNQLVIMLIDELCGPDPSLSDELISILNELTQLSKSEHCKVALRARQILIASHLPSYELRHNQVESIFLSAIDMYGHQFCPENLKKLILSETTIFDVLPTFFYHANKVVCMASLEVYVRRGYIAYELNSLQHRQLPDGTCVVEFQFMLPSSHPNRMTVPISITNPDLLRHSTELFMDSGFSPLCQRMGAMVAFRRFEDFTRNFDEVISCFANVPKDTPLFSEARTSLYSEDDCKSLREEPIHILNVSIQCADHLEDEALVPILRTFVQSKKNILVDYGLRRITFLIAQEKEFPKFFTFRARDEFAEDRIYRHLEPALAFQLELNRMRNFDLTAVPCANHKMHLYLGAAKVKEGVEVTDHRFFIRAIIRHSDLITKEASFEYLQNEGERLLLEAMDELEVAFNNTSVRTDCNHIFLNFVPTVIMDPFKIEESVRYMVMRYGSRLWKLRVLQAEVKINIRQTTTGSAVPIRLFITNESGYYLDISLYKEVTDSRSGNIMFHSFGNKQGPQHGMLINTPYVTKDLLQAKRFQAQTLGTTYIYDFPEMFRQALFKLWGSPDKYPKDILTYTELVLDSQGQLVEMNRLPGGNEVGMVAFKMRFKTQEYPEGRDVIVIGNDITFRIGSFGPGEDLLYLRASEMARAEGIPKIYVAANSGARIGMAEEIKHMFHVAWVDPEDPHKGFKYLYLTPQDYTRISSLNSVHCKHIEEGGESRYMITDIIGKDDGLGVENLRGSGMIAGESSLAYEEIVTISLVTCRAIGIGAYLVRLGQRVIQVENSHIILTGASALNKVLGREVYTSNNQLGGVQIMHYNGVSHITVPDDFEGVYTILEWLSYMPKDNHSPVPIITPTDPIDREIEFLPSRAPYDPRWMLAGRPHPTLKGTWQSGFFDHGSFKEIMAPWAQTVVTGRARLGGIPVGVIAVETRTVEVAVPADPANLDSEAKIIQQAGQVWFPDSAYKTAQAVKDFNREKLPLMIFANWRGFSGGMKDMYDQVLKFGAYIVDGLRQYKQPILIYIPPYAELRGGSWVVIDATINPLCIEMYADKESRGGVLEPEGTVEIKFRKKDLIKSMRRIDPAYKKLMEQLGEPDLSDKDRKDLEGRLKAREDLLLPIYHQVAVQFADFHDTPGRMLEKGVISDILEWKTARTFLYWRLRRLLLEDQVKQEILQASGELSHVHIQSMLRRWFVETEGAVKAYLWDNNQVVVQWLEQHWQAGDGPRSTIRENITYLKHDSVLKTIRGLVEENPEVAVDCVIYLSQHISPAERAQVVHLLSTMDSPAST
Description: (§1) Human recombinant Acetyl-CoA Carboxylase 1 and Acetyl-CoA Carboxylase 2 (ACC1 and ACC2) were assayed by determining the amount of inorganic phosphate (Pi) generated. Pre-incubation of 15 μL enzyme together with 0.75 μL DMSO+/−compound for 5 min was done before the reaction was initiated by the addition of 10 μL substrate. […] After 1.5 h the reaction was stopped by addition of 74 μL of water followed by extensive mixing, split and transfer of 2×40 μL to a read-plate encompassing 30 μL distilled H2O per well (n=2→n=4). Colour reaction was initiated by addition of 30 μL malachite green reagent per well and allowed 15 min before absorbance reading of the plates at 660 nm. The malachite green reagent was prepared by mixing 16.4 mL ammonium molybdate solution (7.5%), 1.64 mL Tween (11%) with 82 mL Malachite Green/H2SO4-solution (0.7 g Malachite Green to 1000 mL of 10% (v/v) H2SO4).
(§2) All compounds were tested in triplicate at 10 different concentrations. Control compound (0, 50 and 100% effect) was included on each plate. […] Curve fitting was done using the following equation: y=(A+((B−A)/(1+((x/C)̂D)))) where A and B represents the curve bottom (% inhibition) and the total amplitude (% inhibition), respectively, whereas C and D are the apparent IC50 and curve slope, respectively.

[2] = molecular target: T2, Human recombinant Acetyl-CoA Carboxylase 1 (ACC1) (Homo sapiens, UniProt Q13085); assay: Assay X: ACC1 inhibition, inorganic phosphate (malachite green); settings: Assay X: 37° C., 1.5 h, 5 min pre-incubation
Description: as §1, §2

[3] = molecular target: T1, Human recombinant Acetyl-CoA Carboxylase 2 (ACC2); assay: Assay Y: ACC2 inhibition, inorganic phosphate (Malachite Green); settings: Assay Y: room temperature, 3 hr, 15 min preincubation
How it was run: (§3)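 Enzyme preincubated with compound 15 min before substrate addition; reaction run 3 h, then phosphate detected with Malachite Green at 670 nm after 10 min at room temperature. Triplicate 10-point titrations; IC50 by non-linear four-parameter curve fitting.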

[4] = molecular target: T2, Human recombinant Acetyl-CoA Carboxylase 1 (ACC1); assay: Assay Y: ACC1 inhibition, inorganic phosphate (Malachite Green); settings: Assay Y: room temperature, 3 hr, 15 min preincubation
How it was run: as §3

SMILES	IC50 [1] [nM]	IC50 [2] [nM]	IC50 [3] [nM]	IC50 [4] [nM]
CC(C)(C)OC(=O)NC[C@H]1CC[C@H](CNC(=O)c2cc(-c3ccc(N)cc3)nc3ccccc23)CC1 [Example 218, tert-Butyl ({trans-4-[({[2-(4-aminophenyl)quinolin-4-yl]carbonyl}amino)-methyl]cyclohexyl}methyl)carbamate]	60	210		
CN(C)CCN1CCN(c2cc(C(=O)NC[C@H]3CC[C@H](CNC(=O)OC(C)(C)C)CC3)c3ccccc3n2)CC1=O [Example 219, tert-Butyl {[trans-4-({[(2-{4-[2-(dimethylamino)ethyl]-3-oxopiperazin-1-yl}quinolin-4-yl)carbonyl]amino}methyl)cyclohexyl]methyl}carbamate]	900	4580		
CC(C)(C)OC(=O)NC[C@H]1CC[C@H](CNC(=O)c2cc(N3CCC(CCN4CC(O)C4)CC3)nc3ccccc23)CC1 [Example 233, tert-Butyl {[trans-4-({[(2-{4-[2-(3-hydroxyazetidin-1-yl)ethyl]piperidin-1-yl}quinolin-4-yl)carbonyl]amino}methyl)cyclohexyl]methyl}carbamate]	100	1020		
CC(C)(C)OC(=O)NC[C@H]1CC[C@H](CNC(=O)c2cc(-c3ccc(OCC4CCOC4)nc3)nc3ccccc23)CC1 (stereo partly drawn) [Example 173, tert-Butyl [(trans-4-{[({2-[6-(tetrahydrofuran-3-ylmethoxy)pyridin-3-yl]quinolin-4-yl}carbonyl)amino]methyl}cyclohexyl)methyl]carbamate]	410			
CC(C)(C)OC(=O)NC[C@H]1CC[C@H](CNC(=O)c2cc(-c3ccc(N4CCOCC4)nc3)nc3ccccc23)CC1 [Example 145, tert-Butyl({trans-4-[({[2-(6-morpholin-4-ylpyridin-3-yl)-quinolin-4-yl]carbonyl}amino)-methyl]cyclohexyl}methyl)carbamate]			60	280
CC(C)(C)OC(=O)NC[C@H]1CC[C@H](CNC(=O)c2cc(-c3ccc(S(N)(=O)=O)cc3)nc3ccccc23)CC1 [Example 135, tert-Butyl [(trans-4-{[({2-[4-(aminosulfonyl)phenyl]-quinolin-4-yl}carbonyl)amino]-methyl}-cyclohexyl)methyl]-carbamate]			80	380
CC(C)(C)OC(=O)NC[C@H]1CC[C@H](CNC(=O)c2ccnc(-c3ccc(CN)cc3)c2)CC1 [Example 52, tert-Butyl ({trans-4-[({2-[4-(aminomethyl)phenyl]isonicotinoyl}amino)methyl]cyclo-hexyl}methyl)carbamate]			7660	8230
CN(C)CCCOc1ccc(-c2cc(C(=O)NC[C@H]3CC[C@H](CNC(=O)OC(C)(C)C)CC3)c3ccccc3n2)cn1 [Example 10, tert-Butyl {[trans-4-({[(2-{6-[3-(dimethylamino)propoxy]pyridin-3-yl}quinolin-4-yl)carbonyl]amino}methyl)cyclohexyl]methyl}carbamate]			40	300
CN1CCN(c2ccc(-c3cc(C(=O)NC[C@H]4CC[C@H](CNC(=O)O[C@H]5CCOC5)CC4)c4ccccc4n3)cn2)CC1 [Example 116, (3S)-Tetrahydrofuran-3-yl-[(trans-4-{[({2-[6-(4-methylpiperazin-1-yl)pyridin-3-yl]quinolin-4-yl}carbonyl)amino]methyl}cyclohexyl)methyl]carbamate]			180	1260
CN(C)c1ccc(-c2cc(C(=O)NC[C@H]3CC[C@H](CNC(=O)OC(C)(C)C)CC3)c3ccccc3n2)cn1 [Example 11, tert-Butyl [(trans-4-{[({2-[6-(dimethylamino)pyridin-3-yl]quinolin-4-yl}carbonyl)-amino]methyl}cyclohexyl)methyl]carbamate]			100	1220
CC(C)(C)OC(=O)NC[C@H]1CC[C@H](CN(CCc2ccccc2)S(=O)(=O)c2ccc3ccccc3c2)CC1 [Example 80, tert-Butyl [(trans-4-{[(2-naphthylsulfonyl)(2-phenylethyl)amino]methyl}cyclohexyl)-methyl]carbamate]			3010	> 20000
CC(C)(C)OC(=O)NC[C@H]1CC[C@H](CNC(=O)c2cc(-c3ccc(N4CCCC4)nc3)nc3ccccc23)CC1 [Example 144, tert-Butyl({trans-4-[({[2-(6-pyrrolidin-1-ylpyridin-3-yl)quinolin-4-yl]carbonyl}amino)methyl]cyclohexyl}methyl)carbamate]			220	4000
CCOC(=O)NC[C@H]1CC[C@H](CNC(=O)c2cc(-c3ccccc3OC)nc3ccccc23)CC1 [Example 31, Ethyl ({trans-4-[({[2-(2-methoxyphenyl)quinolin-4-yl]carbonyl}amino)methyl]-cyclohexyl}methyl)carbamate]			3560	> 20000
CC(C)(C)OC(=O)NC[C@H]1CC[C@H](CNC(=O)c2cc(-c3ccc(N4CC[C@@H](O)C4)nc3)nc3ccccc23)CC1 [Example 147, tert-Butyl{[trans-4-({[(2-{6-[(3R)-3-hydroxypyrrolidin-1-yl]pyridin-3-yl}quinolin-4-yl)carbonyl]amino}-methyl)cyclohexyl]-methyl}carbamate]			30	2590
C[C@@H](CO)OC(=O)NC[C@H]1CC[C@H](CNC(=O)c2cc(-c3ccc(N4CCN(C)CC4)nc3)nc3ccccc23)CC1 [Example 133, (1S)-2-Hydroxy-1-methylethyl [(trans-4-{[({2-[6-(4-methylpiperazin-1-yl)pyridin-3-yl]quinolin-4-yl}carbonyl)amino]methyl}cyclohexyl)methyl]carbamate]			660	2490
C[C@@H](CO)Nc1ccc(-c2cc(C(=O)NC[C@H]3CC[C@H](CNC(=O)OC(C)(C)C)CC3)c3ccccc3n2)cn1 [Example 148, tert-Butyl({trans-4-[({[2-(6-{[(1S)-2-hydroxy-1-methylethyl]amino}-pyridin-3-yl)quinolin-4-yl]carbonyl}amino)-methyl]cyclohexyl}-methyl)carbamate]			70	460
CN(C)CCN1CCN(c2cc(C(=O)NC[C@H]3CC[C@H](CNC(=O)OC(C)(C)C)CC3)c3ccccc3n2)CC1 [Example 186, tert-Butyl{[trans-4-({[(2-{4-[2-(dimethylamino)ethyl]-piperazin-1-yl}quinolin-4-yl)carbonyl]amino}-methyl)cyclohexyl]-methyl}carbamate]			140	2220
CC(=O)Nc1cccc2c(S(=O)(=O)NC[C@H]3CC[C@H](CNC(=O)OC(C)(C)C)CC3)cccc12 [Example 71, tert-Butyl {[trans-4-({[(5-acetamido-1-naphthyl)sulfonyl]amino}methyl)cyclohexyl]-methyl}carbamate]			2450	16900
CC(C)(C)OC(=O)NC[C@H]1CC[C@H](CN(CC#N)S(=O)(=O)c2ccc3ccccc3c2)CC1 [Example 83, tert-Butyl [(trans-4-{[(cyanomethyl)(2-naphthylsulfonyl)amino]methyl}cyclohexyl)-methyl]carbamate]			3270	> 20000
Cc1cc(C(=O)NC[C@H]2CC[C@H](CNC(=O)OC(C)(C)C)CC2)cc(-c2ccccc2)n1 [Example 43, tert-Butyl [(trans-4-{[(2-methyl-6-phenylisonicotinoyl)amino]methyl}cyclohexyl)-methyl]carbamate]			5820	8310
